Drawing on US11384054B2, “Crystalline form of ivacaftor and a process for preparing the same” (ScinoPharm Taiwan, Ltd., priority 2020, dated 2022), this text covers solubility for one compound.

The data set is described as follows: Solubility test of ivacaftor in solvents and acetone/water mixtures at 25° C. It is filed as physicochemical. The conditions noted are these: organic solvent or mixture. On the procedure:
“Solvent” refers to a liquid substance capable of dissolving ivacaftor at about 50° C. to about 60° C. The term “anti-solvent” refers to a liquid substance which is not capable of dissolving ivacaftor at about 20° C. to about 30° C. More particularly, solvents and anti-solvents suitable for crystalline forms of ivacaftor are selected by solubility test, such as the Tables 1A, […], and 1C below, taking into consideration of advantages provided by the convenience and efficiency of process operation, the use of more environmentally friendly solvents, mild crystallization conditions, and others.

In brackets after ≈: the same amount, converted by molar mass. Like-named read-outs stand apart in the source and are kept apart here.

`CC(C)(C)c1cc(C(C)(C)C)c(NC(=O)c2c[nH]c3ccccc3c2=O)cc1O` [ivacaftor]: the solubility (N,N-dimethylformamide, N,N-dimethylformamide, 25° C., read-out: Solubility) turned out to be 109 mg/mL (≈ 277 mM); the solubility (acetone, Acetone, 25° C., read-out: Solubility) amounted to 27.9 mg/mL (≈ 71 mM); the solubility (acetone/water, 0% water in acetone, 25° C., read-out: Solubility in acetone/water) was found to be 27.9 mg/mL (≈ 71 mM); the solubility (acetone/water, 2% water in acetone, 25° C., read-out: Solubility in acetone/water) is 27.9 mg/mL (≈ 71 mM); the solubility (acetone/water, 5% water in acetone, 25° C., read-out: Solubility in acetone/water) stood at 41.4 mg/mL (≈ 106 mM); the solubility (acetone/water, 8% water in acetone, 25° C. (Table 1C), read-out: Solubility in acetone/water) was 41.2 mg/mL (≈ 105 mM). In addition, the solubility was 47.1 mg/mL (≈ 120 mM) (acetone/water, 10% water in acetone, 25° C., read-out: Solubility in acetone/water); 43.3 mg/mL (≈ 110 mM) (acetone/water, 15% water in acetone, 25° C., read-out: Solubility in acetone/water); 11 mg/mL (≈ 28 mM) (acetone/water, 30% water in acetone, 25° C., read-out: Solubility in acetone/water); 0.34 mg/mL (≈ 0.866 mM) (acetone/water, 50% water in acetone, 25° C., read-out: Solubility in acetone/water); 1.78 mg/mL (≈ 4.54 mM) (acetonitrile, Acetonitrile, 25° C., read-out: Solubility); 0.34 mg/mL (≈ 0.866 mM) (cyclohexane, Cyclohexane, 25° C., read-out: Solubility). For the same compound, the solubility amounted to 375 mg/mL (≈ 955 mM) (dimethyl sulfoxide, Dimethyl sulfoxide, 25° C., read-out: Solubility); 4.5 mg/mL (≈ 11.5 mM) (ethanol, Ethanol, 25° C., read-out: Solubility); 16.9 mg/mL (≈ 43.1 mM) (ethyl acetate, Ethyl acetate, 25° C., read-out: Solubility); 2.87 mg/mL (≈ 7.31 mM) (isopropanol, Isopropanol, 25° C., read-out: Solubility); 1.98 mg/mL (≈ 5.04 mM) (methanol, Methanol, 25° C., read-out: Solubility); 44.7 mg/mL (≈ 114 mM) (methyl ethyl ketone, Methyl ethyl ketone, 25° C., read-out: Solubility). Further, the solubility runs as follows: (n-heptane, n-Heptane, 25° C., read-out: Solubility) 0.62 mg/mL (≈ 1.58 mM); (tetrahydrofuran, Tetrahydrofuran, 25° C., read-out: Solubility) 26.6 mg/mL (≈ 67.6 mM).
